Laboratory results: the PolyMetriX glass transition set
± gives the standard deviation of the reports.

SMILES	glass transition temperature [°C]
*CCN(CCOC(=O)c1cc(OCc2cc(OCc3ccccc3)cc(OCc3ccccc3)c2)cc(C(=O)O*)c1)c1ccc(/C=C/c2ccc(/C=C/C3=C(C#N)C(=C(C#N)C#N)OC3(c3ccccc3)C(F)(F)F)s2)cc1 (repeat unit)	130.00
*CC(*)(C)C(=O)OCCCCCCCCCCn1c2ccccc2c2cc(/N=N/c3ccc([N+](=O)[O-])cc3[N+](=O)[O-])ccc21 (repeat unit)	60.00
*c1cc(CCOC(=O)NCCCC)c(*)s1 (repeat unit)	67.50
*CC(*)c1cc(Br)ccc1OCCC(C)C (repeat unit)	37.00
*C(=O)c1ccc2c(c1)C(=O)N(c1cccc(P(=O)(c3cccc(N4C(=O)c5ccc(*)cc5C4=O)c3)c3cc(C(F)(F)F)cc(C(F)(F)F)c3)c1)C2=O (repeat unit)	243.00
*Oc1cc(Br)cc(Br)c1* (repeat unit)	170.00
*CCCCCCCCNC(=O)c1ccc(C(=O)N*)c(Sc2ccccc2)c1 (repeat unit)	110.00
*CN1C(=O)c2ccc(C(c3ccc4c(c3)C(=O)N(Cc3nnc(-c5ccc(-c6nnc(*)o6)c(Oc6ccccc6)c5)o3)C4=O)(C(F)(F)F)C(F)(F)F)cc2C1=O (repeat unit)	208.00
*NC(CCC(=O)Nc1ccc(N(c2ccccc2)c2ccccc2)cc1)C(*)=O (repeat unit)	132.00
*CCCCCCCCCCCCCCNC(=O)NCc1ccc(CNC(=O)N*)cc1 (repeat unit)	54.00
*Oc1ccc(C2(c3ccc(OC(=O)c4cccc(C(*)=O)c4)cc3)CCC3CCCCC3C2)cc1 (repeat unit)	248.00
*c1ccc2c(c1)C(=O)N(c1ccc(Oc3ccccc3-c3ccccc3Oc3ccc(N4C(=O)c5ccc(C(*)(C(F)(F)F)C(F)(F)F)cc5C4=O)cc3)cc1)C2=O (repeat unit)	78.00
*CCN(*)C(=O)c1ccc(F)cc1 (repeat unit)	104.00
*c1ccc(*)cc1 (repeat unit) [Poly(1,4-phenylene)]	278.18 ± 19
*c1ccc(Oc2ccc(C3(c4ccc(Oc5ccc(-c6nc(-c7ccccn7)nnc6*)cc5)cc4)c4ccccc4-c4ccccc43)cc2)cc1 (repeat unit)	277.00
*=Nc1ccc(/N=C(\c2ccccc2)c2ccc(C(=*)c3ccccc3)cc2)cc1 (repeat unit)	179.00
*CC(*)(C)C(=O)OCCCCOc1ccc(/N=N/c2ccc(C#N)cc2)cc1 (repeat unit)	80.00
*/C=C/c1cc(OCCCCCCC)c(/C=C/c2ccc(*)cc2)cc1OCCCCCCC (repeat unit)	46.00
*c1ccc2c(c1)C(=O)N(c1ccc(Oc3ccc(N4C(=O)c5ccc(C(*)(C(F)(F)F)C(F)(F)F)cc5C4=O)cc3)c(OCCN(CC)c3ccc(/N=N/c4ccc([N+](=O)[O-])cc4)cc3)c1)C2=O (repeat unit)	202.00
*c1ncnc(N(CCCCN(*)c2ccccc2)c2ccccc2)n1 (repeat unit)	91.00
*/C=C/c1cccc(OC(=O)CCCCCCCCC(=O)Oc2cccc(-c3nnc(*)s3)c2)c1 (repeat unit)	41.00

SMILES	glass transition temperature [°C]
*c1ccc(Oc2ccc(N3C(=O)c4ccc(Oc5ccc(C(c6ccc(Oc7ccc8c(c7)C(=O)N(*)C8=O)cc6)(C(F)(F)F)C(F)(F)F)cc5)cc4C3=O)cc2)cc1 (repeat unit)	226.50 ± 43
*OC1CCC(OC(=O)OCCCCCCOC(*)=O)CC1 (repeat unit)	10.00
*OS(=O)(=O)c1ccc(*)cc1 (repeat unit)	119.00
*COc1ccc(C(C)(C)c2ccc(O*)cc2)cc1 (repeat unit)	90.00
*CCCCOC(=O)c1ccc([Si](C)(C)c2ccc(C(=O)O*)cc2)cc1 (repeat unit)	42.00
*OP(=O)(Oc1ccccc1)Oc1c(Cl)c(Cl)c(*)c(Cl)c1Cl (repeat unit)	79.00
*OC(C)COC(*)=O (repeat unit) [Poly(propylene carbonate)]	35.73 ± 1.6
*CC(*)c1cc(C(=O)OCC)ccc1-c1ccc(OCCCCCCCC)cc1 (repeat unit)	95.00
*[O][Sn]([CH2]CCC)([CH2]CCC)[O]C(=O)/C=C/C(*)=O (repeat unit)	186.00
*CC(*)c1ccccc1C(=O)NC (repeat unit)	189.00
*OP(=O)(Oc1c(Cl)c(Cl)c(*)c(Cl)c1Cl)Oc1c(Cl)c(Cl)c(Cl)c(Cl)c1Cl (repeat unit)	133.00
*OP(=O)(Oc1ccc(NC(=O)Oc2ccc(-c3ccc(OC(=O)Nc4ccc(*)cc4)cc3)cc2)cc1)c1ccccc1 (repeat unit)	34.00
*OC(CCCCC)CC(*)=O (repeat unit)	-33.00
*Oc1ccc(S(=O)(=O)c2ccc(Oc3ccc(/C=C4\CCC/C(=C\c5ccc(*)cc5)C4=O)cc3)cc2)cc1 (repeat unit)	190.00
*CC(*)(C)C(=O)OCCC1CCN(CCCCCCOc2ccc(/N=N/c3ccc([N+](=O)[O-])cc3)cc2)CC1 (repeat unit)	27.00
*c1ccc(Cc2ccc(-c3nc(-c4cccc(-c5nnc(-c6ccccc6)c(*)n5)n4)nnc3-c3ccccc3)cc2)cc1 (repeat unit)	205.00
*c1ccc(Oc2ccc(C(=O)c3ccc(-c4ccc(C(=O)c5ccc(Oc6ccc(-c7nc(-c8cccc(-c9nc(*)c(-c%10ccccc%10)[nH]9)c8)[nH]c7-c7ccccc7)cc6)cc5)cc4)cc3)cc2)cc1 (repeat unit)	276.00
*CCN(CCOC(=O)Nc1ccc(C)c(NC(=O)O*)c1)c1ccc(/N=N/c2ccc(/N=N/c3cc(OC)c(/N=N/c4ccc([N+](=O)[O-])cc4)cc3OC)c(C)c2)cc1 (repeat unit)	148.00
*c1ccc(Oc2ccc(Oc3ccc(N4C(=O)c5ccc(Oc6ccc(Oc7ccc(Oc8ccc9c(c8)C(=O)N(*)C9=O)cc7)cc6)cc5C4=O)cc3)cc2)cc1 (repeat unit)	203.00
*CC(*)(CC(=O)OCCC1CCCCC1)C(=O)OCCC1CCCCC1 (repeat unit)	48.00
*O[Si](C)(C)c1cccc([Si](*)(C)C)c1 (repeat unit)	-48.00

Now from value to compound:

glass transition temperature [°C]	SMILES
168.10	*Oc1ccc(C(c2ccc(Oc3ccc(C(=O)c4cccc(C(=O)c5ccc(*)cc5)c4)cc3)cc2)(C(F)(F)F)C(F)(F)F)cc1 (repeat unit)
215.00	*c1ccc(Oc2ccc(/C=C/c3ccc(Oc4ccc(-c5nnc(*)o5)cc4)cc3)cc2)cc1 (repeat unit)
114.00	*Oc1ccc(C(=O)c2cccc(C(=O)c3ccc(Oc4cccc(Cc5cccc(*)c5)c4)cc3)c2)cc1 (repeat unit)
230.00	*c1ccc(Oc2ccc(C(=O)c3ccc(Oc4ccc(C(=O)c5ccc(Oc6ccc(-c7nc(-c8ccccc8)[nH]c7*)cc6)cc5)cc4)cc3)cc2)cc1 (repeat unit)
52.00	*c1ccc(OCCCCCCOc2ccc(C3C4C(=O)N(c5ccc(N6C(=O)C7ON(C)C(*)C7C6=O)cc5)C(=O)C4ON3C)cc2)cc1 (repeat unit)
107.80	*Oc1ccc(C(C)(C)c2ccc(OC(=O)Oc3ccc(Cc4ccc(OC(*)=O)cc4)cc3)cc2)cc1 (repeat unit)
98.00	*CCOC(=O)Nc1ccc(Cc2ccc(NC(=O)OCCOc3ccc(O*)cc3)cc2)cc1 (repeat unit)
180.00	*c1cccc(NC(=O)c2ccc(OCCOCCOCCOc3ccc(C(=O)Nc4ccc5[nH]c(*)nc5c4)cc3)cc2)c1 (repeat unit)
69.00	*Oc1ccc(/N=C/CCC/C=N/c2ccc(OC(=O)Nc3cc(NC(*)=O)ccc3C)cc2)cc1 (repeat unit)
28.50	*O[Si](*)(C)CCCCCCCCCCC(=O)Oc1ccc(C(=O)Oc2ccc(OC(=O)c3ccc(OCC(C)CC)cc3)cc2)cc1 (repeat unit)
230.00	*Oc1ccc(Oc2ccc(C(=O)c3cccc4cccc(C(=O)c5ccc(*)cc5)c34)cc2)cc1C(C)(C)C (repeat unit)
155.00	*C(=O)c1ccc(Oc2ccc(-c3ccc(Oc4ccc(C(=O)c5ccc6nc(*)ccc6c5)cc4)cc3)cc2)cc1 (repeat unit)
103.00	*CC(O)COc1ccc(C(C)(C)c2ccc(OCC(O)COc3cccc(NC(=O)CCCCC(=O)Nc4cccc(O*)c4)c3)cc2)cc1 (repeat unit)
38.00	*CC(*)(C)C(=O)OCCCCCCOc1cccc(C(=O)Oc2ccc(C#N)cc2)c1 (repeat unit)
191.00	*Oc1ccc(C(c2ccc(OC(*)=S)cc2)c2cccc3ccccc23)cc1 (repeat unit)
72.40	*/C=C(/*)CCCOC(=O)c1cc(-c2ccc(OC)cc2)ccc1-c1ccc(OC)cc1 (repeat unit)
270.00	*c1ccc(Oc2ccc(NC(=O)c3cc(NC(=O)c4ccc(OC(C)=O)cc4)cc(C(=O)Nc4ccc(Oc5ccc(-c6nnc(*)o6)cc5)cc4)c3)cc2)cc1 (repeat unit)
46.00	*CC(*)(C)C(=O)OCCCCCCOc1ccc(C(=O)Oc2ccc(/N=N/c3ccccc3)c3ccccc23)cc1 (repeat unit)
289.00	*Nc1ccc(C(c2ccc(NC(=O)c3ccc(-c4ccc(C(*)=O)c(C)c4)cc3C)cc2)(C(F)(F)F)C(F)(F)F)cc1 (repeat unit)
311.00	*C(=O)c1ccc2c(c1)C(=O)N(c1ccc(C(=O)Nc3cccc(N4C(=O)c5ccc(*)cc5C4=O)c3)cc1)C2=O (repeat unit)
295.00	*C(=O)Nc1ccc(Oc2ccc(N3C(=O)c4ccc(*)cc4C3=O)cc2)cc1 (repeat unit)
287.00	*c1ccc(C(=O)c2ccc(C(=O)c3ccc(Oc4ccc(-c5nn(*)c(=O)c6ccccc56)c(F)c4)cc3)cc2)cc1 (repeat unit)
258.00	*c1ccc(Cc2ccc(NC(=O)c3ccc(Oc4cccc5c4C(=O)N(*)C5=O)cc3)cc2)cc1 (repeat unit)
